Data set [1] addresses human 5-HT6 receptor (Homo sapiens (Human), UniProt P50406). Nature of the data set: Radioligand binding assay, human 5-HT6 receptor expressed in CHO cell. Conditions: 2 nM [3H]LSD. The protocol:
Example A: The Binding Affinities of the Compounds of this Invention to Human 5-HT6 Receptor Expressed in CHO Cell were Evaluated by Radioligand Binding Assay as Follows
32 μg membrane proteins of CHO cell expressing human 5-HT6 receptor, 2 nM of radioactive marker [3H]LSD, a compound of the present invention having different test concentrations, 100 μM 5-HT (5-HT was used to eliminate nonspecific binding sites) and a buffer solution were mixed uniformly. Then the resulting mixture was incubated at 37° C. for 120 min, in which the buffer solution comprised 50 mM Tris-HCl (pH 7.4), 10 mM MgCl2, 0.5 mM EDTA, 10 μM pargyline and 20 mg/L protease inhibitor.
After incubation, the resulting mixture was filtered by a fiberglass filter (GF/B, Packard) in vacuo, and the filter membrane of the fiberglass filter was preimpregnated with 0.3% PEI before the filtering and washed with 50 mM of Tris-HCl for several times after the filtering. After the filter membrane was dried, and the radioactivity of filter membrane was determined by liquid scintillation counting by using a scintillometer (Topcount, Packard). The reference standard was 5-HT, and competitive inhibition curves were plotted based on several inhibition ratios and the corresponding compound concentrations. IC50 values were calculated by non-linear regression analysis using Hill equation curves, and the Ki values were calculated from IC50 by using the ChengPrusoff equation.

Data set [2] is described as follows: Stability in rat liver microsomes. Conditions: rat liver microsome 0.5 mg/mL, 1 μM compound, 37° C. The format is in vitro ADME. The protocol:
(§1) Example C: Evaluation of the Stability of the Compounds of the Invention in Rat and Human Liver Microsomes
(§2) The compound of the invention and rat liver microsome or human liver microsome were placed in 0.1 M potassium phosphate buffer (containing 1.0 mM EDTA, pH=7.4) at 37° C., and the mixture was incubated at 37° C. The concentrations of the compound at different incubation time points were determined, and the half-life of the compound was calculated by curve plotted based on the relative contents of the compound and the corresponding incubation times by using GraphPad Prism 5.01. Then the intrinsic clearance was calculated.
(§3) The peak area ratio of sample to internal standard was analyzed by the LC/MS/MS system. The content of the compound at 0 min was 100%, and the relative contents of the compound at different time points were calculated. The half-life of the compound was calculated by curve plotted based on the relative contents of the compound and the corresponding incubation times, and the intrinsic clearance was calculated.

Data set [3] is described as follows: Stability in human liver microsomes. Type of data set: in vitro ADME. Conditions: liver microsomes, human liver microsome 0.5 mg/mL, 1 μM compound, 37° C., pH 7.4. The protocol: as §1, §2, §3
On the technique in general: Liver microsomes are vesicles of endoplasmic reticulum, rich in cytochrome P450 enzymes.

Ki, half-life and CLint scaled data for 32 compounds are collected here from patent US9974785B2, “Aromatic heterocyclic derivatives and pharmaceutical applications thereof” (SUNSHINE LAKE PHARMA CO., LTD., priority 2014, dated 2018).

Chain of human 5-HT6 receptor (P50406 whole entry): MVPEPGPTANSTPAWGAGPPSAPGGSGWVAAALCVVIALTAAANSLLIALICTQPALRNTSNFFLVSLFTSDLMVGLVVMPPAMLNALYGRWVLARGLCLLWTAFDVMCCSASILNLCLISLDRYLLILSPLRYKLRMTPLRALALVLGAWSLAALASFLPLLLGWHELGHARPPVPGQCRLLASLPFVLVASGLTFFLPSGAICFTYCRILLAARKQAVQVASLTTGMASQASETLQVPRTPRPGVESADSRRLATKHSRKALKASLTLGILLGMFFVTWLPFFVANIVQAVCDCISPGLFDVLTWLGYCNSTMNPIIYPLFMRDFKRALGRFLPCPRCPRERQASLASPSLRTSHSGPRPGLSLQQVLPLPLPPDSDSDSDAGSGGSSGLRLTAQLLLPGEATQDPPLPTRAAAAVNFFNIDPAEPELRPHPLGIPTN

The term Ki denotes the dissociation constant of the complex between target and ligand, obtained from inhibition or displacement. For `O=S(=O)(c1ccccc1)n1cc(C(F)F)c2c(N3CCNCC3)cccc21` [Example 1, 3-(difluoromethyl)-1-(phenylsulfonyl)-4-(piperazin-1-yl)-1H-indole], affinity in data set [1] was put at a Ki of 1.6 nM.

The half-life is the time needed for the level to fall by half in the phase considered. Higher therefore signals slow decline. In data set [1], `O=S(=O)(c1ccccc1Br)n1cc(C(F)F)c2c(N3CCNCC3)cccc21` [Example 4, 1-((2-bromophenyl)sulfonyl)-3-(difluoromethyl)-4-(piperazin-1-yl)-1H-indole] returned a Ki of 1.1 nM. For the same compound, the half-life at 1 μM in data set [2] (pH 7.4) came to 30.4 min; in data set [3], 157 min. In addition, the CLint scaled at 1 μM in data set [2] (pH 7.4, read-out: Intrinsic clearance) worked out at 81.8 mL/min/kg; in data set [3] (read-out: Intrinsic clearance) it was 11.1 mL/min/kg.

The compound `Cc1ccc(S(=O)(=O)n2cc(C(F)F)c3c(N4CCNCC4)cccc32)cc1` [Example 7, 3-(difluoromethyl)-4-(piperazin-1-yl)-1-tosyl-1H-indole] yielded a Ki in data set [1] of 6.4 nM.

With `COc1ccc(S(=O)(=O)n2cc(C(F)F)c3c(N4CCNCC4)cccc32)cc1` [Example 8, 3-(difluoromethyl)-1-((4-methoxyphenyl)sulfonyl)-4-(piperazin-1-yl)-1H-indole], the Ki in data set [1] worked out at 12 nM. This Ki is about 1.9-fold higher than that of the compound before.

In turn, `O=S(=O)(c1ccc2ccccc2c1)n1cc(C(F)F)c2c(N3CCNCC3)cccc21` [Example 10, 3-(difluoromethyl)-1-(naphthalen-2-ylsulfonyl)-4-(piperazin-1-yl)-1H-indole] displayed a Ki in data set [1] of 0.5 nM.

Turning to `O=S(=O)(c1ccccc1)n1cc(C(F)F)c2cc(N3CCNCC3)ccc21` [Example 11, 3-(difluoromethyl)-1-(phenylsulfonyl)-5-(piperazin-1-yl)-1H-indole], affinity in data set [1] was put at a Ki of 11 nM.

Consider `O=S(=O)(c1ccccc1F)n1cc(C(F)F)c2cc(N3CCNCC3)ccc21` [Example 12, 3-(difluoromethyl)-1-((2-fluorophenyl)sulfonyl)-5-(piperazin-1-yl)-1H-indole], for which the Ki in data set [1] was 30 nM.

In turn, `O=S(=O)(c1ccccc1Cl)n1cc(C(F)F)c2cc(N3CCNCC3)ccc21` [Example 13, 1-((2-chlorophenyl)sulfonyl)-3-(difluoromethyl)-5-(piperazin-1-yl)-1H-indole] yielded a Ki in data set [1] of 13 nM.

The compound `O=S(=O)(c1ccccc1Br)n1cc(C(F)F)c2cc(N3CCNCC3)ccc21` [Example 14, 1-((2-bromophenyl)sulfonyl)-3-(difluoromethyl)-5-(piperazin-1-yl)-1H-indole] gave a Ki in data set [1] of 20 nM. This Ki lies about 1.5-fold higher than the previous one.

`Cc1ccc(S(=O)(=O)n2cc(C(F)F)c3cc(N4CCNCC4)ccc32)cc1` [Example 15, 3-(difluoromethyl)-5-(piperazin-1-yl)-1-tosyl-1H-indole] displayed a Ki in data set [1] of 17 nM.

With `COc1ccc(S(=O)(=O)n2cc(C(F)F)c3cc(N4CCNCC4)ccc32)cc1` [Example 16, 3-(difluoromethyl)-1-((4-methoxyphenyl)sulfonyl)-5-(piperazin-1-yl)-1H-indole], the Ki in data set [1] came to 67 nM.

`O=S(=O)(c1cccc(F)c1)n1cc(C(F)F)c2cc(N3CCNCC3)ccc21` [Example 17, 3-(difluoromethyl)-1-((3-fluorophenyl)sulfonyl)-5-(piperazin-1-yl)-1H-indole] returned a Ki in data set [1] of 13 nM.

In turn, `O=S(=O)(c1cccc(Cl)c1)n1cc(C(F)F)c2cc(N3CCNCC3)ccc21` [Example 18, 1-((3-chlorophenyl)sulfonyl)-3-(difluoromethyl)-5-(piperazin-1-yl)-1H-indole] came in with a Ki in data set [1] of 15 nM.

As for `O=S(=O)(c1cccc(Br)c1)n1cc(C(F)F)c2cc(N3CCNCC3)ccc21` [Example 19, 1-((3-bromophenyl)sulfonyl)-3-(difluoromethyl)-5-(piperazin-1-yl)-1H-indole], the Ki in data set [1] amounted to 13 nM.

In the case of `O=S(=O)(c1ccc(Cl)cc1)n1cc(C(F)F)c2cc(N3CCNCC3)ccc21` [Example 20, 1-((4-chlorophenyl)sulfonyl)-3-(difluoromethyl)-5-(piperazin-1-yl)-1H-indole], the Ki in data set [1] came to 44 nM. Against the preceding compound, the Ki is about 3.4-fold higher.

In data set [1], `O=S(=O)(c1ccc(Br)cc1)n1cc(C(F)F)c2cc(N3CCNCC3)ccc21` [Example 21, 1-((4-bromophenyl)sulfonyl)-3-(difluoromethyl)-5-(piperazin-1-yl)-1H-indole] had a Ki of 44 nM. That is a double-digit nanomolar value.

In turn, `O=S(=O)(c1ccccc1C(F)(F)F)n1cc(C(F)F)c2c(N3CCNCC3)cc(Cl)cc21` [Example 23, 6-chloro-3-(difluoromethyl)-4-(piperazin-1-yl)-1-((2-(trifluoromethyl)phenyl)sulfonyl)-1H-indole] displayed a Ki in data set [1] of 9.3 nM.

Take `O=S(=O)(c1ccccc1F)n1cc(C(F)F)c2c(N3CCNCC3)cc(Cl)cc21` [Example 24, 6-chloro-3-(difluoromethyl)-1-((2-fluorophenyl)sulfonyl)-4-(piperazin-1-yl)-1H-indole]: the Ki in data set [1] came out at 1.6 nM.

In turn, `O=S(=O)(c1ccccc1Cl)n1cc(C(F)F)c2c(N3CCNCC3)cc(Cl)cc21` [Example 25, 6-chloro-1-((2-chlorophenyl)sulfonyl)-3-(difluoromethyl)-4-(piperazin-1-yl)-1H-indole] gave a Ki in data set [1] of 0.68 nM.

Compound `O=S(=O)(c1ccccc1Br)n1cc(C(F)F)c2c(N3CCNCC3)cc(Cl)cc21` [Example 26, 1-((2-bromophenyl)sulfonyl)-6-chloro-3-(difluoromethyl)-4-(piperazin-1-yl)-1H-indole] yielded a Ki in data set [1] of 1.1 nM.

In turn, `O=S(=O)(c1cccc(F)c1)n1cc(C(F)F)c2c(N3CCNCC3)cc(Cl)cc21` [Example 27, 6-chloro-3-(difluoromethyl)-1-((3-fluorophenyl)sulfonyl)-4-(piperazin-1-yl)-1H-indole] displayed a Ki in data set [1] of 1.9 nM. This Ki lies about 1.7-fold higher than the previous one.

`O=S(=O)(c1cccc(Cl)c1)n1cc(C(F)F)c2c(N3CCNCC3)cc(Cl)cc21` [Example 28, 6-chloro-1-((3-chlorophenyl)sulfonyl)-3-(difluoromethyl)-4-(piperazin-1-yl)-1H-indole] had a Ki in data set [1] of 1.4 nM.

`O=S(=O)(c1cccc(Br)c1)n1cc(C(F)F)c2c(N3CCNCC3)cc(Cl)cc21` [Example 29, 1-((3-bromophenyl)sulfonyl)-6-chloro-3-(difluoromethyl)-4-(piperazin-1-yl)-1H-indole] gave a Ki in data set [1] of 1.3 nM.

Turning to `O=S(=O)(c1cccc(F)c1)n1cc(C(F)F)c2c(N3CCNCC3)cc(Br)cc21` [Example 35, 6-bromo-3-(difluoromethyl)-1-((3-fluorophenyl)sulfonyl)-4-(piperazin-1-yl)-1H-indole], the inhibitory constant (Ki) in data set [1] turned out to be 1.9 nM.

Take `O=S(=O)(c1cccc(Cl)c1)n1cc(C(F)F)c2c(N3CCNCC3)cc(Br)cc21` [Example 36, 6-bromo-1-((3-chlorophenyl)sulfonyl)-3-(difluoromethyl)-4-(piperazin-1-yl)-1H-indole]: in data set [1], affinity was put at a Ki of 1.7 nM.

`O=S(=O)(c1cccc(Br)c1)n1cc(C(F)F)c2c(N3CCNCC3)cc(Br)cc21` [Example 37, 6-bromo-1-((3-bromophenyl)sulfonyl)-3-(difluoromethyl)-4-(piperazin-1-yl)-1H-indole] gave a Ki in data set [1] of 1.5 nM.

`CN1CCN(c2cccc3c2c(C(F)F)cn3S(=O)(=O)c2cccc(F)c2)CC1` [Example 42, 3-(difluoromethyl)-1-((3-fluorophenyl)sulfonyl)-4-(4-methylpiperazin-1-yl)-1H-indole] registered a Ki in data set [1] of 0.7 nM.

`CCN1CCN(c2cccc3c2c(C(F)F)cn3S(=O)(=O)c2cccc(F)c2)CC1` [Example 43, 3-(difluoromethyl)-4-(4-ethylpiperazin-1-yl)-1-((3-fluorophenyl)sulfonyl)-1H-indole] gave a Ki in data set [1] of 2.3 nM.

Turning to `CC(C)N1CCN(c2cccc3c2c(C(F)F)cn3S(=O)(=O)c2cccc(F)c2)CC1` [Example 44, 3-(difluoromethyl)-1-((3-fluorophenyl)sulfonyl)-4-(4-isopropylpiperazin-1-yl)-1H-indole], the Ki in data set [1] turned out to be 27 nM.

The compound `O=S(=O)(c1cccc(F)c1)n1cc(C(F)F)c2c(NC3CCNCC3)cccc21` [Example 52, 3-(difluoromethyl)-1-((3-fluorophenyl)sulfonyl)-N-(piperidin-4-yl)-1H-indol-4-amine] returned a Ki in data set [1] of 18 nM.

Turning to `O=S(=O)(c1cccc(Br)c1)n1cc(C(F)F)c2c(NC3CCNCC3)cccc21` [Example 54, 1-((3-bromophenyl)sulfonyl)-3-(difluoromethyl)-N-(piperidin-4-yl)-1H-indol 4-amine], in data set [1], the inhibition constant Ki was determined as 11 nM. This Ki lies about 1.6-fold lower than the previous one.

`O=S(=O)(c1ccccc1)n1cc(C(F)F)c2c(NC3CCNCC3)cccc21` [Example 55, 3-(difluoromethyl)-1-(phenylsulfonyl)-N-(piperidin-4-yl)-1H-indol-4-amine] showed a Ki in data set [1] of 65 nM.
